Experimental data as given in patent US11660307B2, “Methods for treating SARS CoV-2 infections” (Gilead Sciences, Inc., priority 2020, dated 2023).
Like-named read-outs stand apart in the source and are kept apart here.

What was measured:
SARS-CoV-2 = assay: microbe, parasite or virus in culture; type: cell-based; details: Severe acute respiratory syndrome coronavirus 2, 48 h; read-out: SARS-CoV-2 (2-day) EC50
[1] = A549 cytotoxicity analysis (CellTiter-Glo); type: cell-based; details: human
Experimental: The cytotoxicity of compounds was determined in A549 cells in the following manner. Compounds (200 nL) were spotted onto 384-well Grenier plates prior to seeding 5000 A549 cells/well in a volume of 40 μL culture medium. The plates were incubated at 37° C. for 48 hours with 5% CO2. On day 2, 40 μL of CellTiter-Glo (Promega) was added and mixed 5 times. Plates were read for luminescence on an Envision (PerkinElmer) and the CC50 (compound concentration for reducing 50% of luminescence signal as a measure of cell viability) were calculated using a nonlinear regression model (four parameters).

2019-nCoV = assay: Intravenous Compound 32 against 2019-nCoV in rhesus monkeys; type: in vivo; details: 10 mg/kg IV once daily, vs vehicle
[2] = A549 cells, 48 hours, CellTiter-Glo, read-out: A549 Cytotoxicity (2-day) CC50

N#C[C@@]1(c2ccc3c(N)ncnn23)O[C@H](CO)[C@@H](O)[C@H]1O
EC50 (SARS-CoV-2): 869 ± 289 nM | CC50 at 48 h [1]: > 50000 nM

CCC(CC)COC(=O)[C@H](C)N[P@@](=O)(OC[C@H]1O[C@@](C#N)(c2ccc3c(N)ncnn23)[C@H](O)[C@@H]1O)Oc1ccccc1
EC50 (SARS-CoV-2): 272 ± 75 nM | CC50 at 48 h [1, 2]: 17700 nM

CCC(CC)COC(=O)[C@H](C)N[P@](=O)(OC[C@H]1O[C@@](C#N)(c2ccc3c(N)ncnn23)[C@H](O)[C@@H]1O)Oc1ccccc1 [Compound 32, (S)-2-ethylbutyl 2-(((S)-(((2R,3S,4R,5R)-5-(4-aminopyrrolo[2,1-f][1,2,4]triazin-7-yl)-5-cyano-3,4-dihydroxytetrahydrofuran-2-yl)methoxy)(phenoxy)phosphoryl)amino)propanoate]
cumulative clinical scores (2019-nCoV): notably higher in vehicle-treated animals | disease symptoms (2019-nCoV): less pronounced

CCC(CC)COC(=O)[C@H](C)N[P@](=O)(OC[C@H]1O[C@@](C#N)(c2ccc3c(N)ncnn23)[C@H](O)[C@@H]1O)Oc1ccccc1 [drawing 141]
EC50 (SARS-CoV-2): 135 ± 20 nM | CC50 at 48 h [1, 2]: > 25200 nM
